The values below are quoted from earlier work in patent publication US7618987B2, “Acylated piperidine derivatives as melanocortin 4-receptor agonists” (Merck & Co., Inc., priority 2004, dated 2009).

The test system of data set [1] is males with psychogenic erectile dysfunction.
For data set [2] the following is noted: in vivo, po.

Consider “Ac-Nle-c[Asp-His-DPhe-Arg-Trp-Lys]-NH2 [MT-II]”, for which, in data set [1] (in vivo), the adverse reactions observed result is “nausea, flushing, loss of appetite, stretching, and yawning”; the duration of action entry is listed as “approximately 2.5 hours”; the “time to onset of erection” value was 10 to 20 min. For the same substance, in data set [1] (injected intramuscularly or subcutaneously), the response rate was 75%. Further, the “absorption into the systemic circulation” value in data set [2] was “not absorbed into the systemic circulation”.
